Values joined by “and” are separate entries in the source; they are usually repeats but may differ in a detail not shown here. Identical values can stand only once. Counter-ions that a name gives are not always drawn. Like-named read-outs stand apart in the source and are kept apart here.
Legend:
[1] = cited from earlier work
[2] = system: rats with monocrotaline induced pulmonary arterial hypertension; assay: Monocrotaline rat model for treatment of pulmonary arterial hypertension (Example 2, dosing Day 14 till Day 28); format: in vivo, Male Sprague-Dawley rats; details: for % Inhibition of Fulton index: Hypertrophy (RV/LV + S) / inhibition at 30 mg/kg: positive control = 0.00; for inhibition at 30 mg/kg: Rattus norvegicus, po
Procedure: The studies were conducted for hemodynamic evaluation of desipramnine in anesthetized Sprague Dawley rats treated with monocrotaline (“MCT”) to induce pulmonary arterial hypertension. Sildenafil was used as an internal control to compare the effects of desipramine. The effects of desipramine were evaluated in rats with monocrotaline induced pulmonary arterial hypertension using sildenafil as standard care treatment. Male Sprague-Dawley rats were orally administered vehicle, desipramine (30 mg/kg, given once daily every day starting on Day 14 till Day 28), or sildenafil (100 mg/kg, given once daily every day starting on Day 14 till Day 28) (n=12 in each group). Rats received a single injection of monocrotaline (50 mg/kg, s.c.) on Study Day 1. On the twenty-eighth day following monocrotaline dosing, the rats were anesthetized with ketamine/xylazine for terminal monitoring of pulmonary and systemic arterial pressures along with heart rate.
Test Item: Vehicle (0.5% Methylcellulose+0.2% Tween 80 in deionized water. Desipramine (30 mg/kg given once daily starting on Day 14 till Day 28; Sildenafil (100 mg/kg, administered once daily starting on Day 14 till Day 28)
(§1) Route of Administration: Oral
Study Design: The study was planned and conducted according to design depicted below in Table 7
Pulmonary arterial hypertension was induced by injecting 50 mg/kg dose of monocrotaline (3 mL/Kg MCT in 50% DMSO in water) subcutaneously to all the randomized Male Sprague-Dawley rats of Groups VII, VII, IX and X (except negative control group). Negative control group (Group VI. DMSO group) received a single dose of 3 mL/kg 50% DMSO in water for injection subcutaneously. Male Sprague-Dawley rats in groups […], VII, VIII and IX and X were administered 50 mg/kg of body weight of monocrotaline in DMSO subcutaneously to induce PAH on day 1. The rats of vehicle positive control group (Group VIII) received 5 ml of vehicle every morning. The rats of desipramine group (Group IX) were orally administered desipramine (30 mg/kg given once daily starting on Day 14 till Day 28) and rats of sildenafil group (Group X) were orally administered dildenafil (100 mg/kg given once daily starting on Day 14 till Day 28). On the twenty-eighth day after monocrotaline dosing, the rats were anesthetized with ketamine/xylazine for terminal monitoring of pulmonary and systemic arterial pressures along with heart rate. It is understood that from day 1 till administration of test compounds i.e., until day 14, rates of all groups were suffering from PAH due to administration of MCT. Thus the study was conducted to evaluate the efficacy of desipramine treatment for PAH. Sildenafil was used as an internal control to compare the effects of desipramine.

[3] = system: rats with monocrotaline induced pulmonary arterial hypertension; assay: Monocrotaline rat model for pulmonary arterial hypertension (Example 1, dosing Day 1 to 28); format: in vivo, Male Sprague-Dawley rats
Procedure: The studies were conducted for hemodynamic evaluation of desipramine in anesthetized sprague dawley rats treated with monocrotaline (“MCT”) to induce pulmonary arterial hypertension. Sildenafil was used as an internal control to compare the effects of desipramine.
The effects of Desipramine were evaluated in rats with monocrotaline induced pulmonary arterial hypertension using sildenafil as standard care treatment. Male Sprague-Dawley rats were orally administered vehicle, Desipramine (20 mg/kg given once daily every day for 28 days starting on Day 1), or sildenafil (100 mg/kg, administered once daily every day for 28 days starting on Day 1) (n=12 in each group). Rats received a single injection of monocrotaline (50 mg/kg, s.c.) on Study Day 1. On the twenty-eighth day following monocrotaline dosing, the rats were anesthetized with ketamine/xylazine for terminal monitoring of pulmonary and systemic arterial pressures along with heart rate.
Test Item: Vehicle (0.5% Methylcellulose+0.2% Tween 80 in deionized water. Desipramine (20 mg/kg given once daily for 28 days; Sildenafil (100 mg/kg administered once daily)
as §1
Study Design: The study was planned and conducted according to design depicted below in Table 1
Pulmonary arterial hypertension was induced by injecting Monocrotaline (3 mL/Kg MCT in 50% DMSO in water) subcutaneously at a dose of 50 mg/kg of body weight to all the randomized Male Sprague-Dawley rats of Groups II, III, IV and V (except negative control group). Negative control group (Group I. DMSO group) received a single dose of 3 mL/kg 50% DMSO in water for injection subcutaneously. The positive control group (Group III) received 5 ml of vehicle every morning. The rats of desipramine group (Group IV) were orally administered Desipramine (20 mg/kg given once daily for 28 days starting on Day 1) and rats of sildenafil group (Group V) were orally administered sildenafil (100 mg/kg given once daily for 28 days starting on Day 1) On the twenty-eighth day after monocrotaline dosing, the rats were anesthetized with ketamine/xylazine for terminal monitoring of pulmonary and systemic arterial pressures along with heart rate.

[4] = group mean, Desipramine 30 mg/Kg p.o. QD Day 14 till Day 28, Day 28
[5] = individual animals, Desipramine 30 mg/Kg p.o. QD Day 14 till Day 28, Day 28
[6] = group mean, Desipramine 20 mg/Kg p.o. QD Day 1-28, Day 28
[7] = individual animals, Desipramine 20 mg/Kg p.o. QD Day 1-28, Day 28

CNCCCN1c2ccccc2CCc2ccccc21 [Desipramine hydrochloride]
time at which peak plasma concentrations are attained ([1]; following oral administration): 4 to 6 h | absorption from the gastrointestinal tract ([1]; in vivo): rapidly and almost completely absorbed | first-pass metabolism ([1]; in vivo): extensive

CNCCCN1c2ccccc2CCc2ccccc21 [Desipramine]
% Inhibition of Fulton index: Hypertrophy (RV/LV + S) ([2]; Desipramine 30 mg/Kg p.o. QD Day 14 till Day 28): 32.07% | inhibition at 30 mg/kg ([2]; Desipramine 30 mg/Kg p.o. QD Day 14 till Day 28, read-out: % Inhibition of Right Ventricular Pressure (RVP)): 53.9% | inhibition at 30 mg/kg ([2]; Desipramine 30 mg/Kg p.o. QD Day 14 till Day 28, read-out: % Inhibition of Right Ventricular Systolic Pressure (RVSP)): 51.6% | systolic and mean pulmonary arterial pressures compared to the vehicle group ([2]; after 28 days, desipramine 30 mg/kg/day once daily, Day 14 till Day 28): differences | activity in treatment of PAH compared with Sildenafil activity ([2]; desipramine 30 mg/kg vs sildenafil 100 mg/kg, Day 14 till Day 28): comparable | Fulton index: Hypertrophy (RV/LV + S), Mean [2, 4]: 0.376 | Right Ventricle weight, Mean [2, 4]: 0.250 gms | Right Ventricular Pressure (RVP), Mean [2, 4]: 15.796 mmHg | Right Ventricular Systolic Pressure (RVSP), Mean [2, 4]: 33.248 mmHg | Right ventricle/Body weight, Mean [2, 4]: 0.0007 | Fulton index: Hypertrophy (RV/LV + S) [2, 5]: 0.404 and 0.426 and 0.430 and 0.333 and 0.288 | Right Ventricle weight [2, 5]: 0.252 gms and 0.274 gms and 0.340 gms and 0.205 gms and 0.181 gms | Right Ventricular Pressure (RVP) [2, 5]: 14.133 mmHg and 19.618 mmHg and 19.346 mmHg and 15.432 mmHg and 10.448 mmHg | Right ventricle/Body weight [2, 5]: 0.0008 (2×) and 0.0010 and 0.0006 and 0.0005 | Right Ventricular Systolic Pressure (RVSP) ([2]; individual animals, Desipramine 30 mg/Kg p.o. QD Day 14 till Day 28, MCT 50 mg/kg s.c., Day 28): 30.245 mmHg and 39.927 mmHg and 38.672 mmHg and 32.210 mmHg and 25.188 mmHg | systolic and mean pulmonary arterial pressures compared to the vehicle group ([3]; after 28 days, desipramine 20 mg/kg/day once daily): differences | activity in controlling or reducing PAH compared with Sildenafil activity ([3]; desipramine 20 mg/kg vs sildenafil 100 mg/kg, Day 1-28): comparable | Fulton index: Hypertrophy (RV/LV + S), Mean [3, 6]: 0.321 | RV/Body wt (Right Ventricle/Body Weight), Mean [3, 6]: 0.0007 | Right Ventricle (RV), Mean [3, 6]: 0.200 g | Right Ventricular Pressure (RVP), Mean [3, 6]: 16.241 mmHg | Right Ventricular Systolic Pressure (RVSP), Mean ([3]; group mean, Desipramine 20 mg/Kg p.o. QD Day 1-28, MCT 50 mg/kg s.c., Day 28): 33.154 mmHg | Fulton index: Hypertrophy (RV/LV + S) [3, 7]: 0.292 and 0.474 and 0.274 and 0.244 and 0.286 and 0.278 and 0.426 and 0.352 and 0.263 | RV/Body wt (Right Ventricle/Body Weight) [3, 7]: 0.0005 (4×) and 0.0012 and 0.0006 (2×) and 0.0008 (2×) | Right Ventricle (RV) [3, 7]: 0.171 g and 0.272 g and 0.168 g and 0.163 g and 0.169 g (2×) and 0.289 g and 0.251 g and 0.150 g | Right Ventricular Pressure (RVP) [3, 7]: 22.694 mmHg and 19.903 mmHg and 14.460 mmHg and 12.513 mmHg and 13.047 mmHg and 12.287 mmHg and 13.930 mmHg and 16.428 mmHg and 20.906 mmHg | Right Ventricular Systolic Pressure (RVSP) ([3]; individual animals, Desipramine 20 mg/Kg p.o. QD Day 1-28, MCT 50 mg/kg s.c., Day 28): 44.096 mmHg and 40.737 mmHg and 27.834 mmHg and 26.777 mmHg and 25.403 mmHg and 26.483 mmHg and 31.091 mmHg and 37.179 mmHg and 38.785 mmHg

CCCc1nn(C)c2c(=O)[nH]c(-c3cc(S(=O)(=O)N4CCN(C)CC4)ccc3OCC)nc12 [Sildenafil]
% Inhibition of Fulton index: Hypertrophy (RV/LV + S) ([2]; Sildenafil 100 mg/Kg p.o. QD Day 14 till Day 28): 30.70% | Fulton index: Hypertrophy (RV/LV + S), Mean ([2]; group mean, Sildenafil 100 mg/Kg p.o. QD Day 14 till Day 28, Day 28): 0.384 | Fulton index: Hypertrophy (RV/LV + S) ([2]; individual animals, Sildenafil 100 mg/Kg p.o. QD Day 14 till Day 28, Day 28): 0.393 and 0.306 and 0.337 and 0.389 and 0.415 and 0.464 | RV/Body wt (Right Ventricle/Body Weight), Mean ([3]; group mean, Sildenafil 100 mg/kg p.o. QD Day 1-28, Day 28): 0.0006 | RV/Body wt (Right Ventricle/Body Weight) ([3]; individual animals, Sildenafil 100 mg/kg p.o. QD Day 1-28, Day 28): 0.0009 and 0.0006 (4×) and 0.0007 (3×) and 0.0003

— patent US20240016814A1, “METHOD OF TREATING HYPERTENSION” (Cipla Limited, priority 2017, published 2024)
